Measurements taken from PubChem BioAssay AID328 (DTP/NCI, 2004).
“And” between values parts separate entries of the source, which are not always exact repeats. Equal values may be shown once. Toxic doses and inconclusive results are not listed.

System: BDF1 mice, P388 leukemia ip, median survival T/C
Assay: NCI In Vivo Anticancer Drug Screen. Data for tumor model P388 Leukemia (intraperitoneal) in B6D2F1 (BDF1) mice
Conditions: endpoint: median survival time, higher = longer survival
Outline: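 Antitumour effect was judged in vivo: survival in drug-treated mice, normalised to that of vehicle-dosed controls, gives the reported T/C.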

[1] = dose: 100.0 mg/kg/injection, schedule: Q04DX003 (ip), vehicle: saline with Tween-80
[2] = dose: 200.0 mg/kg/injection, schedule: Q04DX003 (ip), vehicle: saline with Tween-80
[3] = dose: 400.0 mg/kg/injection, schedule: Q04DX003 (ip), vehicle: saline with Tween-80
[4] = dose: 100.0 mg/kg/injection, schedule: Q01DX009 (ip), vehicle: Klucel (hydroxypropylcellulose) (HPC)
[5] = dose: 100.0 mg/kg/injection, schedule: Q04DX003 (ip), vehicle: Klucel (hydroxypropylcellulose) (HPC)
[6] = dose: 200.0 mg/kg/injection, schedule: Q01DX009 (ip), vehicle: Klucel (hydroxypropylcellulose) (HPC)
[7] = dose: 200.0 mg/kg/injection, schedule: Q04DX003 (ip), vehicle: Klucel (hydroxypropylcellulose) (HPC)
[8] = dose: 400.0 mg/kg/injection, schedule: Q01DX009 (ip), vehicle: Klucel (hydroxypropylcellulose) (HPC)
[9] = dose: 400.0 mg/kg/injection, schedule: Q04DX003 (ip), vehicle: Klucel (hydroxypropylcellulose) (HPC)
[10] = dose: 100.0 mg/kg/injection, schedule: Q01DX009 (ip), vehicle: saline with Tween-80
[11] = dose: 200.0 mg/kg/injection, schedule: Q01DX009 (ip), vehicle: saline with Tween-80
[12] = dose: 25.0 mg/kg/injection, schedule: Q01DX009 (ip), vehicle: Klucel (hydroxypropylcellulose) (HPC)
[13] = dose: 50.0 mg/kg/injection, schedule: Q01DX009 (ip), vehicle: Klucel (hydroxypropylcellulose) (HPC)
[14] = dose: 6.25 mg/kg/injection, schedule: Q01DX009 (ip), vehicle: water
[15] = dose: 12.5 mg/kg/injection, schedule: Q01DX009 (ip), vehicle: water
[16] = dose: 25.0 mg/kg/injection, schedule: Q04DX003 (ip), vehicle: water
[17] = dose: 50.0 mg/kg/injection, schedule: Q01DX009 (ip), vehicle: water
[18] = dose: 50.0 mg/kg/injection, schedule: Q04DX003 (ip), vehicle: water
[19] = dose: 100.0 mg/kg/injection, schedule: Q01DX009 (ip), vehicle: water
[20] = dose: 100.0 mg/kg/injection, schedule: Q04DX003 (ip), vehicle: water
[21] = dose: 12.5 mg/kg/injection, schedule: Q01DX009 (ip), vehicle: saline with Tween-80
[22] = dose: 50.0 mg/kg/injection, schedule: Q01DX009 (ip), vehicle: saline with Tween-80

CCOC(=O)c1cc(CC)sc1N was tested, and the T/C [1] was 95 % of control, the T/C [2] was 108 % of control and the T/C [3] was 108 % of control.

With COC(=O)C1OC1c1ccccc1 (stereo not drawn) the T/C [4] was 100 % of control, the T/C [5] was 95 % of control and the T/C [6] was 100 % of control. For the same molecule, the T/C [7] was 95 % of control, the T/C [8] was 100 % of control and the T/C [9] was 95 % of control.

With O=C(O)CCN1C(=O)c2ccccc2C1=O the T/C [10] was 90 % of control and the T/C [11] was 100 % of control.

In the case of CC[n+]1cc(-c2ccc(NC(=O)/C=C\c3ccc(C(=O)Nc4ccc(-c5c[n+](CC)c(N)nc5N)cc4)cc3)cc2)c(N)nc1N, the T/C (dose: 33.0 mg/kg/injection, schedule: Q04DX003 (ip), vehicle: saline with Tween-80) is reported as 195 % of control, the T/C (dose: 50.0 mg/kg/injection, schedule: Q04DX003 (ip), vehicle: saline with Tween-80) is reported as 272 % of control and the T/C (dose: 75.0 mg/kg/injection, schedule: Q04DX003 (ip), vehicle: saline with Tween-80) is reported as 272 % of control.

With CC(N)C(=O)NC(C)C(=O)O (stereo not drawn) the T/C (dose: 100.0 mg/kg/injection, schedule: Q01DX001 (ip), vehicle: saline) was 98 % of control, the T/C (dose: 200.0 mg/kg/injection, schedule: Q01DX001 (ip), vehicle: saline) was 100 % of control and the T/C (dose: 400.0 mg/kg/injection, schedule: Q01DX001 (ip), vehicle: saline) was 99 % of control.

With CSc1nc2c(N)nc(N)nc2nc1C the T/C [1] was 100 % of control, the T/C [2] was 108 % of control and the T/C [3] was 108 % of control.

With Cc1ccc(Nc2nc(N)nc(CNc3ccc(Cl)cc3)n2)cc1 the T/C (dose: 100.0 mg/kg/injection, schedule: Q04DX003 (ip), vehicle: saline sonified) was 110 % of control, the T/C (dose: 200.0 mg/kg/injection, schedule: Q04DX003 (ip), vehicle: saline sonified) was 100 % of control and the T/C (dose: 400.0 mg/kg/injection, schedule: Q04DX003 (ip), vehicle: saline sonified) was 100 % of control.

With C[C@]1(O)CC[C@H]2[C@@H]3CCC4=CC(=O)CCC4=C3C=C[C@@]21C the T/C (dose: 12.5 mg/kg/injection, schedule: Q01DX009 (ip), vehicle: Klucel (hydroxypropylcellulose) (HPC)) was 87 % of control, the T/C [12] was 91 % of control and the T/C [13] was 91 % of control. For the same molecule, the T/C [4] was 104 % of control, the T/C [5] was 104 % of control and the T/C [6] was 109 % of control. For the same molecule, the T/C [7] was 104 % of control.

In the case of c1ccc(-c2c(-c3ccccc3)c(-c3ccccc3)c(-c3ccccc3)c(-c3ccccc3)c2-c2ccccc2)cc1, the T/C [14] is reported as 93 % of control, the T/C [15] is reported as 115 % of control and the T/C (dose: 12.5 mg/kg/injection, schedule: Q04DX003 (ip), vehicle: water) is reported as 106 % of control. For the same molecule, the T/C [16] was 106 % of control and 108 % of control, the T/C [17] was 90 % of control and the T/C [18] was 100 % of control and 109 % of control. The T/C [19] was 89 % of control and the T/C [20] was 88 % of control and 97 % of control.

COC(=O)C1CSC2(CCCN(Cc3ccccc3)C2)N1 (stereo not drawn) was tested, and the T/C (dose: 50.0 mg/kg/injection, schedule: Q01DX009 (ip), vehicle: saline) was 113 % of control, the T/C (dose: 100.0 mg/kg/injection, schedule: Q01DX009 (ip), vehicle: saline) was 119 % of control and the T/C (dose: 200.0 mg/kg/injection, schedule: Q01DX009 (ip), vehicle: saline) was 96 % of control.

For CCOC(=O)/C(N=O)=C(\O)c1ccc2ccccc2n1, the T/C (dose: 3.12 mg/kg/injection, schedule: Q01DX009 (ip), vehicle: water) was 106 % of control, the T/C [14] was 98 % of control and 99 % of control and 103 % of control and the T/C [15] was 111 % of control and 123 % of control. For the same molecule, the T/C (dose: 25.0 mg/kg/injection, schedule: Q01DX009 (ip), vehicle: water) was 94 % of control and 104 % of control and 106 % of control, the T/C [16] was 97 % of control and the T/C [17] was 100 % of control and 103 % of control. For the same molecule, the T/C [18] was 120 % of control, the T/C [19] was 99 % of control and the T/C [20] was 105 % of control. For the same molecule, the T/C (dose: 200.0 mg/kg/injection, schedule: Q01DX009 (ip), vehicle: water) was 91 % of control, the T/C (dose: 200.0 mg/kg/injection, schedule: Q04DX003 (ip), vehicle: water) was 97 % of control and the T/C (dose: 400.0 mg/kg/injection, schedule: Q01DX009 (ip), vehicle: water) was 110 % of control. The T/C (dose: 400.0 mg/kg/injection, schedule: Q04DX003 (ip), vehicle: water) was 92 % of control.

CCOC(=O)/C=C(/C)Sc1cc(O)c2ccccc2c1O was tested, and the T/C (dose: 1.56 mg/kg/injection, schedule: Q01DX009 (ip), vehicle: saline with Tween-80) was 101 % of control and 124 % of control, the T/C (dose: 3.13 mg/kg/injection, schedule: Q01DX009 (ip), vehicle: saline with Tween-80) was 119 % of control and 120 % of control and the T/C (dose: 6.25 mg/kg/injection, schedule: Q01DX009 (ip), vehicle: saline with Tween-80) was 124 % of control. The T/C [21] was 114 % of control.

With COc1ccc(C2(C#N)CCCCC2)cc1 the T/C [4] was 104 % of control, the T/C [5] was 95 % of control and the T/C [6] was 91 % of control. For the same molecule, the T/C [7] was 108 % of control, the T/C [8] was 108 % of control and the T/C [9] was 91 % of control.

NCCNc1c[nH]c(=O)[nH]c1=O was tested, and the T/C [22] was 110 % of control, the T/C [10] was 103 % of control and the T/C [11] was 103 % of control.

CCN(CC)CCCC#CCN1CCCCC1 was tested, and the T/C [12] was 100 % of control, the T/C (dose: 25.0 mg/kg/injection, schedule: Q04DX003 (ip), vehicle: Klucel (hydroxypropylcellulose) (HPC)) was 91 % of control and the T/C [13] was 90 % of control. The T/C (dose: 50.0 mg/kg/injection, schedule: Q04DX003 (ip), vehicle: Klucel (hydroxypropylcellulose) (HPC)) was 91 % of control, the T/C [4] was 100 % of control and the T/C [5] was 91 % of control.

In the case of O=S(=O)(NC1CCCCC1)c1ccccc1, the T/C (dose: 75.0 mg/kg/injection, schedule: Q01DX009 (ip), vehicle: saline with Tween-80) is reported as 90 % of control, the T/C [1] is reported as 95 % of control and the T/C (dose: 150.0 mg/kg/injection, schedule: Q01DX009 (ip), vehicle: saline with Tween-80) is reported as 90 % of control. The T/C (dose: 300.0 mg/kg/injection, schedule: Q01DX009 (ip), vehicle: saline with Tween-80) was 95 % of control and the T/C [3] was 100 % of control.

COc1cccc(S(=O)c2ccc([N+](=O)[O-])c3no[n+]([O-])c23)c1 (stereo not drawn) was tested, and the T/C (dose: 15.0 mg/kg/injection, schedule: Q01DX009 (ip), vehicle: saline with Tween-80) was 112 % of control.

In the case of Cn1nc(-c2ccccc2)nc1[N+](=O)[O-], the T/C [21] is reported as 114 % of control, the T/C (dose: 25.0 mg/kg/injection, schedule: Q01DX009 (ip), vehicle: saline with Tween-80) is reported as 97 % of control and the T/C [22] is reported as 93 % of control. For the same molecule, the T/C [10] was 99 % of control.
